Test system: NHBE cells
Assay: Biolog metabolic array: substrate use by NHBE cells with or without CA09 infection
Type: cell-based, human
Settings: for Substrate use, 590 nm absorbance normalized to zero hour, 0 hr: Biolog PMM2, 0 hr; for Substrate use, 590 nm absorbance normalized to zero hour, 1 hr: Biolog PMM2, 1 hr; for Substrate use, 590 nm absorbance normalized to zero hour, 5 hr: Biolog PMM2, 5 hr; for Substrate use, 590 nm absorbance normalized to zero hour, 7 hr: Biolog PMM2, 7 hr
[1] = Control (uninfected) NHBE cells
[2] = Virus (CA09-infected, MOI 1) NHBE cells
[3] = Virus: CA09-infected NHBE cells, MOI 1, Biolog PMM2
[4] = Virus (CA09, MOI 1) infected NHBE cells
[5] = Virus (CA09-infected NHBE cells, MOI 1)

NCCCC(=O)O [g-Amino Butyric Acid]
590 nm absorbance normalized to zero hour (substrate use), 0 hr [1]: 1.00
590 nm absorbance normalized to zero hour (substrate use), 1 hr [1]: 1.25
590 nm absorbance normalized to zero hour (substrate use), 3 hr [1]: 1.42
590 nm absorbance normalized to zero hour (substrate use), 4 hr [1]: 1.47
590 nm absorbance normalized to zero hour (substrate use), 6 hr [1]: 3.94
590 nm absorbance normalized to zero hour (substrate use), 8 hr [1]: 1.09
590 nm absorbance normalized to zero hour (substrate use), 9 hr [1]: 2.20
590 nm absorbance normalized to zero hour (substrate use), 10 hr [1]: 1.13
590 nm absorbance normalized to zero hour (substrate use), 11 hr [1]: 2.55
Substrate use, 590 nm absorbance normalized to zero hour, 0 hr [1]: 1.00
Substrate use, 590 nm absorbance normalized to zero hour, 1 hr [1]: 1.25
Substrate use, 590 nm absorbance normalized to zero hour, 5 hr [1]: 1.52
Substrate use, 590 nm absorbance normalized to zero hour, 7 hr [1]: 1.05
590 nm absorbance normalized to zero hour (substrate use), 0 hr [2]: 1.00
590 nm absorbance normalized to zero hour (substrate use), 1 hr [2]: 1.68
590 nm absorbance normalized to zero hour (substrate use), 2 hr [2]: 2.39
590 nm absorbance normalized to zero hour (substrate use), 3 hr [2]: 2.83
590 nm absorbance normalized to zero hour (substrate use), 4 hr [2]: 2.96
590 nm absorbance normalized to zero hour (substrate use), 5 hr [2]: 3.40
590 nm absorbance normalized to zero hour (substrate use), 6 hr [2]: 3.56
590 nm absorbance normalized to zero hour (substrate use), 7 hr [2]: 3.70
590 nm absorbance normalized to zero hour (substrate use), 8 hr [2]: 3.84
590 nm absorbance normalized to zero hour (substrate use), 9 hr [2]: 3.99
590 nm absorbance normalized to zero hour (substrate use), 10 hr [2]: 3.94
590 nm absorbance normalized to zero hour (substrate use), 11 hr [2]: 3.74
590 nm absorbance normalized to zero hour (substrate use), 0 hr [3]: 1.00
590 nm absorbance normalized to zero hour (substrate use), 1 hr [3]: 1.68
590 nm absorbance normalized to zero hour (substrate use), 2 hr [3]: 2.39
590 nm absorbance normalized to zero hour (substrate use), 3 hr [3]: 2.83
590 nm absorbance normalized to zero hour (substrate use), 4 hr [3]: 2.96
590 nm absorbance normalized to zero hour (substrate use), 5 hr [3]: 3.40
590 nm absorbance normalized to zero hour (substrate use), 6 hr [3]: 3.56
590 nm absorbance normalized to zero hour (substrate use), 7 hr [3]: 3.70
590 nm absorbance normalized to zero hour (substrate use), 8 hr [3]: 3.84
590 nm absorbance normalized to zero hour (substrate use), 9 hr [3]: 3.99
590 nm absorbance normalized to zero hour (substrate use), 10 hr [3]: 3.94
590 nm absorbance normalized to zero hour (substrate use), 11 hr [3]: 3.74

O=C[C@H](O)[C@@H](O)[C@H](O)[C@H](O)COP(=O)(O)O [D-Glucose-6-Phosphate]
590 nm absorbance normalized to zero hour (substrate use), 1 hr [1]: 1.14
590 nm absorbance normalized to zero hour (substrate use), 2 hr [1]: 1.18
590 nm absorbance normalized to zero hour (substrate use), 3 hr [1]: 3.24
590 nm absorbance normalized to zero hour (substrate use), 4 hr [1]: 1.30
590 nm absorbance normalized to zero hour (substrate use), 6 hr [1]: 0.74
590 nm absorbance normalized to zero hour (substrate use), 8 hr [1]: 1.28
590 nm absorbance normalized to zero hour (substrate use), 9 hr [1]: 1.38
590 nm absorbance normalized to zero hour (substrate use), 10 hr [1]: 2.69
590 nm absorbance normalized to zero hour (substrate use), 11 hr [1]: 1.87
Substrate use, 590 nm absorbance normalized to zero hour, 1 hr [1]: 1.14
Substrate use, 590 nm absorbance normalized to zero hour, 5 hr [1]: 1.48
Substrate use, 590 nm absorbance normalized to zero hour, 7 hr [1]: 2.93
Substrate use, 590 nm absorbance normalized to zero hour, 1 hr [4]: 2.01
Substrate use, 590 nm absorbance normalized to zero hour, 5 hr [4]: 4.92
Substrate use, 590 nm absorbance normalized to zero hour, 7 hr [4]: 5.87
590 nm absorbance normalized to zero hour (substrate use), 1 hr [2]: 2.01
590 nm absorbance normalized to zero hour (substrate use), 2 hr [2]: 3.00
590 nm absorbance normalized to zero hour (substrate use), 3 hr [2]: 3.61
590 nm absorbance normalized to zero hour (substrate use), 4 hr [2]: 4.04
590 nm absorbance normalized to zero hour (substrate use), 6 hr [2]: 5.47
590 nm absorbance normalized to zero hour (substrate use), 8 hr [2]: 6.35
590 nm absorbance normalized to zero hour (substrate use), 9 hr [2]: 7.41
590 nm absorbance normalized to zero hour (substrate use), 10 hr [2]: 7.21
590 nm absorbance normalized to zero hour (substrate use), 11 hr [2]: 5.87

O=C(O)[C@H](O)[C@@H](O)[C@H](O)[C@H](O)CO[C@H]1O[C@H](CO)[C@H](O)[C@H](O)[C@H]1O [Melibionic Acid]
590 nm absorbance normalized to zero hour (substrate use), 0 hr [1]: 1.00
590 nm absorbance normalized to zero hour (substrate use), 1 hr [1]: 0.20
590 nm absorbance normalized to zero hour (substrate use), 2 hr [1]: 0.76
590 nm absorbance normalized to zero hour (substrate use), 3 hr [1]: 0.58
590 nm absorbance normalized to zero hour (substrate use), 4 hr [1]: 0.66
590 nm absorbance normalized to zero hour (substrate use), 6 hr [1]: 0.40
590 nm absorbance normalized to zero hour (substrate use), 8 hr [1]: 0.51
590 nm absorbance normalized to zero hour (substrate use), 9 hr [1]: 0.53
590 nm absorbance normalized to zero hour (substrate use), 10 hr [1]: 0.57
590 nm absorbance normalized to zero hour (substrate use), 11 hr [1]: 0.60
Substrate use, 590 nm absorbance normalized to zero hour, 0 hr [1]: 1.00
Substrate use, 590 nm absorbance normalized to zero hour, 1 hr [1]: 0.20
Substrate use, 590 nm absorbance normalized to zero hour, 5 hr [1]: 0.48
Substrate use, 590 nm absorbance normalized to zero hour, 7 hr [1]: 0.47
Substrate use, 590 nm absorbance normalized to zero hour, 0 hr [4]: 1.00
Substrate use, 590 nm absorbance normalized to zero hour, 1 hr [4]: 3.52
Substrate use, 590 nm absorbance normalized to zero hour, 5 hr [4]: 3.34
Substrate use, 590 nm absorbance normalized to zero hour, 7 hr [4]: 3.05
590 nm absorbance normalized to zero hour (substrate use), 0 hr [2]: 1.00
590 nm absorbance normalized to zero hour (substrate use), 1 hr [2]: 3.52
590 nm absorbance normalized to zero hour (substrate use), 2 hr [2]: 3.58
590 nm absorbance normalized to zero hour (substrate use), 3 hr [2]: 3.59
590 nm absorbance normalized to zero hour (substrate use), 4 hr [2]: 3.66
590 nm absorbance normalized to zero hour (substrate use), 6 hr [2]: 3.22
590 nm absorbance normalized to zero hour (substrate use), 8 hr [2]: 2.89
590 nm absorbance normalized to zero hour (substrate use), 9 hr [2]: 2.67
590 nm absorbance normalized to zero hour (substrate use), 10 hr [2]: 1.66
590 nm absorbance normalized to zero hour (substrate use), 11 hr [2]: 2.18

OC[C@@H]1OC(O)[C@@H](O)[C@H](O)[C@H]1O (stereo partly drawn) [L-Glucose]
590 nm absorbance normalized to zero hour (substrate use), 0 hr [1]: 1.00
590 nm absorbance normalized to zero hour (substrate use), 1 hr [1]: 1.65
590 nm absorbance normalized to zero hour (substrate use), 2 hr [1]: 2.20
590 nm absorbance normalized to zero hour (substrate use), 3 hr [1]: 2.64
590 nm absorbance normalized to zero hour (substrate use), 4 hr [1]: 2.83
590 nm absorbance normalized to zero hour (substrate use), 6 hr [1]: 3.82
590 nm absorbance normalized to zero hour (substrate use), 8 hr [1]: 3.55
590 nm absorbance normalized to zero hour (substrate use), 9 hr [1]: 3.76
590 nm absorbance normalized to zero hour (substrate use), 10 hr [1]: 3.89
590 nm absorbance normalized to zero hour (substrate use), 11 hr [1]: 4.25
Substrate use, 590 nm absorbance normalized to zero hour, 0 hr [1]: 1.00
Substrate use, 590 nm absorbance normalized to zero hour, 1 hr [1]: 1.65
Substrate use, 590 nm absorbance normalized to zero hour, 5 hr [1]: 3.52
Substrate use, 590 nm absorbance normalized to zero hour, 7 hr [1]: 3.51
590 nm absorbance normalized to zero hour (substrate use), 0 hr [5]: 1.00
590 nm absorbance normalized to zero hour (substrate use), 1 hr [5]: 0.29
590 nm absorbance normalized to zero hour (substrate use), 2 hr [5]: 0.39
590 nm absorbance normalized to zero hour (substrate use), 3 hr [5]: 0.45
590 nm absorbance normalized to zero hour (substrate use), 4 hr [5]: 0.49
590 nm absorbance normalized to zero hour (substrate use), 5 hr [5]: 0.57
590 nm absorbance normalized to zero hour (substrate use), 6 hr [5]: 0.61
590 nm absorbance normalized to zero hour (substrate use), 7 hr [5]: 0.64
590 nm absorbance normalized to zero hour (substrate use), 8 hr [5]: 0.68
590 nm absorbance normalized to zero hour (substrate use), 9 hr [5]: 0.76
590 nm absorbance normalized to zero hour (substrate use), 10 hr [5]: 0.76
590 nm absorbance normalized to zero hour (substrate use), 11 hr [5]: 0.86
590 nm absorbance normalized to zero hour (substrate use), 0 hr [3]: 1.00
590 nm absorbance normalized to zero hour (substrate use), 1 hr [3]: 0.29
590 nm absorbance normalized to zero hour (substrate use), 2 hr [3]: 0.39
590 nm absorbance normalized to zero hour (substrate use), 3 hr [3]: 0.45
590 nm absorbance normalized to zero hour (substrate use), 4 hr [3]: 0.49
590 nm absorbance normalized to zero hour (substrate use), 5 hr [3]: 0.57
590 nm absorbance normalized to zero hour (substrate use), 6 hr [3]: 0.61
590 nm absorbance normalized to zero hour (substrate use), 7 hr [3]: 0.64
590 nm absorbance normalized to zero hour (substrate use), 8 hr [3]: 0.68
590 nm absorbance normalized to zero hour (substrate use), 9 hr [3]: 0.76
590 nm absorbance normalized to zero hour (substrate use), 10 hr [3]: 0.76
590 nm absorbance normalized to zero hour (substrate use), 11 hr [3]: 0.86

Reference: patent US11083725B2 (priority 2014, dated 2021)
